The values that follow are results of earlier work, collected in patent US7977373B2, “Prodrugs of ion channel modulating compounds and uses thereof” (Cardiome Pharma Corp., priority 2004, dated 2011).

SMILES strings stand for the structures.

For `CCCCCCCN(CC)CCCC(O)c1ccc(NS(C)(=O)=O)cc1` (centres unmarked) [ibutilide], the “patients requiring cardioversion for refractory ventricular arrhythmias” value is given as ~1.7%. Moreover, under “estimated, patients”, the “risk of ventricular proarrhythmia” value was ~4.4%.
